“Also recorded” adds a separate entry of the source. Read-outs that look alike come from different tables or passages of the source.
What was measured:
[1] = Beagle dog PK study 2 of Example 101 (HPβCD based formulation, IV), with clinical observations; assay type: in vivo; details: for concentration at 0.083 h / concentration at 0.25 h / concentration at 0.5 h / concentration at 1 h / concentration at 2 h / concentration at 4 h / concentration at 8 h / concentration at 24 h / AUC(0-inf) / AUC(0-t) / C0 / half-life / MRT inf / Vd: beagle, dog, plasma, iv, 1 mg/kg; for MRT inf: read-out: MRTInf—obs; for Vd: read-out: Vss—obs
Method: The purpose of this study was to examine the pharmacokinetics of Example 101 in beagle dogs. […] An oral PK study was also undertaken in Lewis rats—see Experimental Method C.
Body weight was recoded prior to dosing, and detailed clinical observations were made prior to dosing and throughout the study, as needed.
78.646 mL of HPβCD (20% solution w/v) was then added with vortex and sonication.
Blood samples (˜0.3 mL) were collected according to a schedule (shown below) by venipuncture of peripheral veins except for the dosing vein, and EDTA-K2 was used as anticoagulant. Within 30 minutes of collection, the samples were centrifuged at approximately 2000×g for 10 minutes at 4° C. to obtain blood plasma. The plasma samples were immediately divided into two aliquots (˜75 μL each), transferred to a cryogenic vial, and stored in a freezer at ˜75±15° C. prior to analysis.
Blood samples were collected at 0.083, 0.25, 0.5, 1, 2, 4, 8, and 24 h following the initial dosing (0 h).
The experiments were conducted on a Shimadzu DGU-20A5R and AB API 5500+LC/MS/MS instrument with an Agilent Poroshell EC-C18 4 μm (50×2.1 mm) column. A gradient of 95% water (0.1% formic acid)/95% acetonitrile (0.1% formic acid) was used as the mobile phase. The sample injection volume was 1 μL, and the flow rate was 0.6 mL/min. The gathered data were used for pharmacokinetic calculations using T½, C0, AUClast, AUCinf, MRTinf, CI, Vss, and Number of Points for Regression as parameters.

[2] = Intrinsic clearance in liver microsomes, mouse; assay type: in vitro ADME; details: pH 7.4, Method 1, read-out: Half-Life (T1/2) (min), Mouse
In short: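 Compound at 1 μM (0.1–1% DMSO) incubated at 37 °C with mouse or rat liver microsomes (0.5 mg/mL protein) and 1 mM NADPH in PBS pH 7.4; samples taken up to 60 min and quenched in cold acetonitrile. LC-MS/MS of percent remaining gave half-life and CLint; no-NADPH controls run.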

[3] = beagle dogs, IV, 0.5 mg/mL in HPβCD based formulation, PK study 2
[4] = dog PK study 2, IV 1 mg/kg, HPβCD, Test Animal 1, read-out: Plasma concentration
[5] = dog PK study 2, IV 1 mg/kg, HPβCD, Test Animal 2, read-out: Plasma concentration
[6] = dog PK study 2, IV 1 mg/kg, HPβCD, Test Animal 3, read-out: Plasma concentration
[7] = dog PK study 2, IV 1 mg/kg, HPβCD, mean, read-out: Average plasma concentration, Mean
[8] = dog PK study 2, IV 1 mg/kg, HPβCD, Test Animal 1
[9] = dog PK study 2, IV 1 mg/kg, HPβCD, Test Animal 2
[10] = dog PK study 2, IV 1 mg/kg, HPβCD, Test Animal 3
[11] = dog PK study 2, IV 1 mg/kg, HPβCD, mean

SMILES: CNC(=O)c1[nH]c(C(=O)NC2CCC2)cc1O[C@@H](C)c1ccccc1 (stereo in doubt) [Example 101, N^5-cyclobutyl-N^2-methyl-3-(1-phenylethoxy)-1H-pyrrole-2,5-dicarboxamide]
- clinical observations [1, 3]: soft feces 8 hours after administration; also recorded: No other clinical observations were made; also recorded: fewer clinical observations in response to Example 101 when prepared in HPβCD
- plasma concentration as a function of time (FIGS. 1D-1E) [1, 3]: Plasma concentrations decreased similarly over the first 2 h post-administration
- concentration at 0.083 h [1, 4]: 1270 ng/mL
- concentration at 0.083 h [1, 5]: 1460 ng/mL
- concentration at 0.083 h [1, 6]: 1580 ng/mL
- concentration at 0.083 h [1, 7]: 1440 ng/mL
- concentration at 0.25 h [1, 4]: 721 ng/mL
- concentration at 0.25 h [1, 5]: 820 ng/mL
- concentration at 0.25 h [1, 6]: 985 ng/mL
- concentration at 0.25 h [1, 7]: 842 ng/mL
- concentration at 0.5 h [1, 4]: 322 ng/mL
- concentration at 0.5 h [1, 5]: 498 ng/mL
- concentration at 0.5 h [1, 6]: 702 ng/mL
- concentration at 0.5 h [1, 7]: 507 ng/mL
- concentration at 1 h [1, 4]: 187 ng/mL
- concentration at 1 h [1, 5]: 140 ng/mL
- concentration at 1 h [1, 6]: 320 ng/mL
- concentration at 1 h [1, 7]: 216 ng/mL
- concentration at 2 h [1, 4]: 49.3 ng/mL
- concentration at 2 h [1, 5]: 54.1 ng/mL
- concentration at 2 h [1, 6]: 159 ng/mL
- concentration at 2 h [1, 7]: 87 ng/mL
- concentration at 4 h [1, 4]: 4.83 ng/mL
- concentration at 4 h [1, 5]: 10.8 ng/mL
- concentration at 4 h [1, 6]: 42.1 ng/mL
- concentration at 4 h [1, 7]: 19.2 ng/mL
- concentration at 8 h [1, 4]: 0 ng/mL
- concentration at 8 h [1, 5]: 2.5 ng/mL
- concentration at 8 h [1, 6]: 6.58 ng/mL
- concentration at 8 h [1, 7]: 3.03 ng/mL
- concentration at 24 h ([1]; dog PK study 2, IV 1 mg/kg, HPβCD, 24 h, Test Animal 1): 0 ng/mL
- concentration at 24 h ([1]; dog PK study 2, IV 1 mg/kg, HPβCD, 24 h, Test Animal 2): 0 ng/mL
- concentration at 24 h ([1]; dog PK study 2, IV 1 mg/kg, HPβCD, 24 h, Test Animal 3): 0 ng/mL
- AUC(0-inf) [1, 8]: 723 ng·h/mL
- AUC(0-t) [1, 8]: 719 ng·h/mL
- C0 [1, 8]: 1680 ng/mL
- half-life [1, 8]: 34.4 min
- MRT inf [1, 8]: 36.4 min
- Vd [1, 8]: 0.838 L/kg
- AUC(0-inf) [1, 9]: 850 ng·h/mL
- AUC(0-t) [1, 9]: 844 ng·h/mL
- C0 [1, 9]: 1940 ng/mL
- half-life [1, 9]: 84.6 min
- MRT inf [1, 9]: 45.1 min
- Vd [1, 9]: 0.886 L/kg
- AUC(0-inf) [1, 10]: 1380 ng·h/mL
- AUC(0-t) [1, 10]: 1370 ng·h/mL
- C0 [1, 10]: 2000 ng/mL
- half-life [1, 10]: 79.8 min
- MRT inf [1, 10]: 72 min
- Vd [1, 10]: 0.868 L/kg
- AUC(0-inf) [1, 11]: 984 ng·h/mL
- AUC(0-t) [1, 11]: 977 ng·h/mL
- C0 [1, 11]: 1880 ng/mL
- half-life [1, 11]: 66 min
- MRT inf [1, 11]: 51 min
- Vd [1, 11]: 0.864 L/kg
- Average plasma concentration, Mean ([1]; dog PK study 2, IV 1 mg/kg, HPβCD, 24 h, mean): BLOQ
- AUClast/D [1, 8]: 719 (ng · h/mL)/(mg/kg)
- AUC—% Extrap—obs [1, 8]: 0.552%
- Cl_obs [1, 8]: 23.1 mL/min/kg
- AUClast/D [1, 9]: 844 (ng · h/mL)/(mg/kg)
- AUC—% Extrap—obs [1, 9]: 0.599%
- Cl_obs [1, 9]: 19.6 mL/min/kg
- AUClast/D [1, 10]: 1367 (ng · h/mL)/(mg/kg)
- AUC—% Extrap—obs [1, 10]: 0.915%
- Cl_obs [1, 10]: 12.1 mL/min/kg
- AUClast/D [1, 11]: 977 (ng · h/mL)/(mg/kg)
- AUC—% Extrap—obs [1, 11]: 0.689%
- Cl_obs [1, 11]: 18.3 mL/min/kg
- half-life at 1 μM [2]: 27 min

Reference: US20250263370A1 (Tay Therapeutics Limited, priority 2022, published 2025)
